For one data set, the target named is T1, humanized GnRH receptor (Homo sapiens, UniProt P30968).
T1 construct: expressed in transfected cells; host or cells: RBL-1 cells (Rat Basophilic Leukemia)
T1 sequence (P30968 1-328): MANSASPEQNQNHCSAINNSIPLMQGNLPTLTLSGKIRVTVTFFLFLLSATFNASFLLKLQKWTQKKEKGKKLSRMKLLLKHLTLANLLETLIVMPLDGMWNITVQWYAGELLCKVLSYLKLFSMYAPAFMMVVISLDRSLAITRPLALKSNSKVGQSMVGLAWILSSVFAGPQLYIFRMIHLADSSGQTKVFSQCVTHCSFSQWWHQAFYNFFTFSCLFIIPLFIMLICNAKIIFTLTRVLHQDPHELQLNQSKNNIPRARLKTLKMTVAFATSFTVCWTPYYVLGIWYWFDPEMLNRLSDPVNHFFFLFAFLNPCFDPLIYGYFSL
The data set is described as follows: Antagonism on humanized GnRH receptor transfected in RBL-1 cells, fluorescence detection of cytoplasmic calcium flow. It is filed as cell-based. The note with it: RBL-1 cells transfected with humanized GnRH receptor, 8 nM LH-RH. On the procedure:
The antagonism of the compound on humanized GnRH receptor transfected in RBL-1 cells (Rat Basophilic Leukemia) was evaluated by a fluorescence method for detecting the cytoplasmic calcium flow.
The cells were suspended in HBSS buffer (Invitrogen, USA), 20 mM HEPES buffer (Invitrogen, USA) was added, and then the cells were added at an average density of 1.186×10^4 cells/well into a microwell reaction plate. Fluorescent probe (Fluo8 Direct, AAT Bioquest) was mixed with HBSS buffer (adding 20 mM HEPES buffer, pH=7.4), and the mixture was added into each well and the cells were incubated at 30° C. for 60 min. Then the reaction plate was placed in a microplate reader (FlipR Tetra, Molecular Device) for testing, the test compound or HBSS buffer (blank control) was added, after 5 min, 8 nM LH-RH was added, and the changes of the fluorescence intensity which is proportional to intracellular calcium ion concentration were measured. The fluorescence intensity of the blank control group without adding the compound was taken as 100% (inhibition rate was 0%), and the inhibition rate of the compound was calculated. The IC50 value was calculated by measuring the inhibition rate of the compound at different concentrations.

A short description of data set [1]: Pharmacokinetic evaluation after intravenous or gavage administration to rats. The conditions noted are these: for AUC(0-inf) / AUC(0-t) / Cmax / MRT inf / Tmax / clearance / half-life: Sprague-Dawley (SD), rat, plasma. It is filed as in vivo, SD rats. Here is the method: (§1) The pharmacokinetics of the compound of the invention in rats and/or dogs were evaluated herein, the animal information was listed in Table B.
(§2) The compound of the present invention was administered to the animal subjects in the form of 10% DMSO+10% Kolliphor HS15+78% Saline+2% (2% HCl) solution or 78% Saline+2% (2% HCl)+20% PEG400 solution. Before administration, the animals were fasted for 12 hours but water was freely allowed. In the IV group, the dose was 1 mg/kg (Rats) or 0.5 mg/kg (dogs), blood samples were taken from vein at the following time points after administration (blood volume was about 0.2 mL): 0.083, 0.25, 0.5, 1.0, 2.0, 4.0, 6.0, 8.0 and 24 h (dogs) or 0.083, 0.25, 0.5, 1.0, 2.0, 5.0, 7.0 and 24 h (Rats), EDTA-K2 was pre-added to the blood vessels as an anticoagulant. In the gavage group, the dose was 5 mg/kg (Rats) or 2.5 mg/kg (dogs), blood samples were taken from vein at the following time points after administration (blood volume was about 0.2 mL): 0.25, 0.5, 1.0, 2.0, 4.0, 6.0, 8.0 and 24 h (dogs) or 0.25, 0.5, 1.0, 2.0, 5.0, 7.0 and 24 h (Rats), EDTA-K2 was pre-added to the blood vessels as an anticoagulant. The blood samples were centrifuged at […] for 2 minutes. The plasma was collected and kept at −20° C. or −70° C.
(§3) The above collected plasma samples were processed (after thawing of frozen plasma at room temperature, the thawed plasma was vortexed for 15 s; 10-20 μL of plasma was taken and 120-150 μL of acetonitrile solution containing internal standard was added to the plasma; the mixture was vortexed for 5 min amd centrifuged for 5 min at 4,000 rpm; 100 μL of supernatant was taken and 120-150 μL of methanol/water (v/v=1/1) was added to the suspernatant, and mixing), and then LC/MS/MS was used to analyze the concentration of the compound in plasma, and […] was used to calculate the pharmacokinetic parameters.

Data set [2] in a line: Pharmacokinetic evaluation after intravenous or gavage administration to dogs. The format is in vivo, Beagle dogs. The note with it: 2.5 mg/kg; for AUC(0-inf) / AUC(0-t) / Cmax / MRT inf / Tmax / half-life: beagle, dog, plasma, intravenous, i.v group; for F: gavage group. On the procedure:
as §1
as §2, with “In the gavage group, the dose was 5 mg/kg (Rats) or 2.5 mg/kg (dogs), blood samples were taken from vein at the following time points after administration (blood volume was about 0.2 mL): 0.25, 0.5, 1.0, 2.0, 4.0, 6.0, 8.0 and 24 h (dogs) or 0.25, 0.5, 1.0, 2.0, 5.0, 7.0 and 24 h (Rats), EDTA-K2 was pre-added to the blood vessels as an anticoagulant.” left out
as §3

As to `CONC(=O)Nc1ccc(-c2sc3c(c2CN(C)C)c(=O)n(-c2ccc(-n4nccn4)cn2)c(=O)n3Cc2c(F)cccc2F)cc1` [Example 2, 1-(4-(3-(5-(2H-1,2,3-triazol-2-yl)pyrid-2-yl)-1-(2,6-difluorobenzyl)-5-((dimethylamino)methyl)-2,4-dioxo-1,2,3,4-tetrahydrothieno[2,3-d]pyrimidin-6-yl)phenyl)-3-methoxyurea], the IC50 (commonly the concentration that gives 50% inhibition) at humanized GnRH receptor turned out to be 3 nM. Besides, in data set [1] (iv, i.v group, 1 mg/kg), the AUC(0-inf) (usually the area under the concentration-time curve extrapolated to infinity) stood at 266 ng·h/mL; the AUC(0-t) (usually the area under the concentration-time curve up to a stated or last time point) turned out to be 261 ng·h/mL; the Cmax (commonly the highest concentration seen after dosing) was 352 ng/mL; the MRT inf (in general, the average time that molecules of a dose stay in the body) stood at 1.22 h. Further, in data set [1] (iv, i.v group, 1 mg/kg), the Tmax (in general, the time from dosing to the highest level) is 0.083 h; the clearance was determined as 62.7 mL/min/kg; the half-life – broadly, the time needed for the level to fall by half in the phase considered – was 1.33 h. In data set [1] (po, i.g group, 5 mg/kg), this compound returned an AUC(0-inf) of 529 ng·h/mL, an area under the curve AUC(0-t) of 519 ng·h/mL, a Cmax of 177 ng/mL and a mean residence time MRT inf of 2.48 h. In data set [1] (po, i.g group, 5 mg/kg), the Tmax came to 0.667 h and the half-life was 1.91 h. This compound also returned a F in data set [1] (i.g group, 5 mg/kg) of 39.8%. Moreover, in data set [2], the total exposure AUC(0-inf) turned out to be 4290 ng·h/mL, the AUC(0-t) was found to be 4130 ng·h/mL, the peak level (Cmax) was 720 ng/mL and the MRT inf is 5.59 h. Further, in data set [2], the Tmax came out at 1.33 h, the half-life was 4.41 h and the F is 133%.
`CONC(=O)Nc1ccc(-c2sc3c(c2CN(C)C)c(=O)n(-c2ccc(-n4cccn4)nc2)c(=O)n3Cc2c(F)cccc2F)cc1` [Example 3, 1-(4-(3-(6-(1H-pyrazol-1-yl)pyrid-3-yl)-1-(2,6-difluorobenzyl)-5-((dimethylamino)methyl)-2,4-dioxo-1,2,3,4-tetrahydrothieno[2,3-d]pyrimidin-6-yl)phenyl)-3-methoxyurea]: the IC50 on humanized GnRH receptor is 1.82 nM. In data set [1] (iv, i.v group, 1 mg/kg), this compound displayed a total exposure AUC(0-inf) of 184 ng·h/mL, an AUC(0-t) of 179 ng·h/mL, a Cmax of 151 ng/mL and an MRT inf of 4.58 h. Further, in data set [1] (iv, i.v group, 1 mg/kg), the Tmax amounted to 0.083 h, the clearance turned out to be 90.7 mL/min/kg and the half-life was 2.13 h. In data set [1] (po, i.g group, 5 mg/kg), this compound had an AUC(0-inf) of 1750 ng·h/mL, an AUC(0-t) of 1710 ng·h/mL, a Cmax of 164 ng/mL and an MRT inf of 6.4 h. In addition, in data set [1] (po, i.g group, 5 mg/kg), the Tmax worked out at 2.33 h and the half-life is 4.43 h. Moreover, in data set [1] (i.g group, 5 mg/kg), the F amounted to 190.6%. In data set [2], this compound showed an AUC(0-inf) of 11800 ng·h/mL, an AUC(0-t) of 9490 ng·h/mL, a Cmax of 671 ng/mL and an MRT inf of 13.2 h. In addition, in data set [2], the Tmax came to 1.67 h, the half-life is 9.44 h and the F came out at 140.3%.
On to `CONC(=O)Nc1ccc(-c2sc3c(c2CN(C)C)c(=O)n(-c2ccc(-n4nccn4)nc2)c(=O)n3Cc2c(F)cccc2F)cc1` [Example 4, 1-(4-(3-(6-(2H-1,2,3-triazol-2-yl)pyrid-3-yl)-1-(2,6-difluorobenzyl)-5-((dimethylamino)methyl)-2,4-dioxo-1,2,3,4-tetrahydrothieno[2,3-d]pyrimidin-6-yl)phenyl)-3-methoxyurea], for which the half-maximal inhibitory concentration (IC50) on humanized GnRH receptor turned out to be 2.22 nM.
For `CONC(=O)Nc1ccc(-c2sc3c(c2CN(C)C)c(=O)n(-c2cccc(-n4cccn4)n2)c(=O)n3Cc2c(F)cccc2F)cc1` [Example 5, 1-(4-(3-(6-(1H-pyrazol-1-yl)pyrid-2-yl)-1-(2,6-difluorobenzyl)-5-((dimethylamino)methyl)-2,4-dioxo-1,2,3,4-tetrahydrothieno[2,3-d]pyrimidin-6-yl)phenyl)-3-methoxyurea], the IC50 at humanized GnRH receptor came to 4.1 nM.
On the same count and under the same terms, the result for `CONC(=O)Nc1ccc(-c2sc3c(c2CN(C)C)c(=O)n(-c2ccc(-n4cccn4)nn2)c(=O)n3Cc2c(F)cccc2F)cc1` [Example 12, 1-(4-(3-(6-(1H-pyrazol-1-yl)pyridazin-3-yl)-1-(2,6-difluorobenzyl)-5-((dimethylamino)methyl)-2,4-dioxo-1,2,3,4-tetrahydrothieno[2,3-d]pyrimidin-6-yl)phenyl)-3-methoxyurea] reads 3.13 nM.

The record behind these values is patent US20220267347A1, “SUBSTITUTED PYRIMIDINEDIONE COMPOUNDS AND USES THEREOF” (SUNSHINE LAKE PHARMA CO., LTD., priority 2019, published 2022).
